Assay results taken from ChEMBL document CHEMBL1149417 (Bioorg Med Chem Lett, 2006).

What was measured:
[1] = target: T1, Estrogen receptor (Homo sapiens, UniProt P03372); type: functional, cell-based, HEK293
T1 sequence (P03372 whole entry): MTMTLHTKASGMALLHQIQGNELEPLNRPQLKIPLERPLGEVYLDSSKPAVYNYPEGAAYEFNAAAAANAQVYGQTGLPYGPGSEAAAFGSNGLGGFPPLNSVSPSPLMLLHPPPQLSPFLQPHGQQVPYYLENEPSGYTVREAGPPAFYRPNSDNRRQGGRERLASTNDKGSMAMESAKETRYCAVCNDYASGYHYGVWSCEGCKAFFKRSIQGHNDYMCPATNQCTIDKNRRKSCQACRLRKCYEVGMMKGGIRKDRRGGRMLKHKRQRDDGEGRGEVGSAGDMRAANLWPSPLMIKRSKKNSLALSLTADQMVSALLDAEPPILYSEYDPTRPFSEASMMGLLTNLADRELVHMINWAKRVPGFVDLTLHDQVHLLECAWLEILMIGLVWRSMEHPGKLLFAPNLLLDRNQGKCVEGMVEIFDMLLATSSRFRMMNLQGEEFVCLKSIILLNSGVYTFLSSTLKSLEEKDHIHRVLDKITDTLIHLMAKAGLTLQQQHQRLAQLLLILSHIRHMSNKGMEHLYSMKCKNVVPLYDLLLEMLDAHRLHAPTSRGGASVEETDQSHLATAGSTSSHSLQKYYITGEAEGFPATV
Description: Effect on transactivation of ALP gene expression in HEK293 cells transfected with hERalpha

[2] = target: T1, Estrogen receptor
Description: Binding affinity to human ERalpha

[3] = target: T2, Androgen receptor (Homo sapiens, UniProt P10275)
T2 sequence (P10275 whole entry): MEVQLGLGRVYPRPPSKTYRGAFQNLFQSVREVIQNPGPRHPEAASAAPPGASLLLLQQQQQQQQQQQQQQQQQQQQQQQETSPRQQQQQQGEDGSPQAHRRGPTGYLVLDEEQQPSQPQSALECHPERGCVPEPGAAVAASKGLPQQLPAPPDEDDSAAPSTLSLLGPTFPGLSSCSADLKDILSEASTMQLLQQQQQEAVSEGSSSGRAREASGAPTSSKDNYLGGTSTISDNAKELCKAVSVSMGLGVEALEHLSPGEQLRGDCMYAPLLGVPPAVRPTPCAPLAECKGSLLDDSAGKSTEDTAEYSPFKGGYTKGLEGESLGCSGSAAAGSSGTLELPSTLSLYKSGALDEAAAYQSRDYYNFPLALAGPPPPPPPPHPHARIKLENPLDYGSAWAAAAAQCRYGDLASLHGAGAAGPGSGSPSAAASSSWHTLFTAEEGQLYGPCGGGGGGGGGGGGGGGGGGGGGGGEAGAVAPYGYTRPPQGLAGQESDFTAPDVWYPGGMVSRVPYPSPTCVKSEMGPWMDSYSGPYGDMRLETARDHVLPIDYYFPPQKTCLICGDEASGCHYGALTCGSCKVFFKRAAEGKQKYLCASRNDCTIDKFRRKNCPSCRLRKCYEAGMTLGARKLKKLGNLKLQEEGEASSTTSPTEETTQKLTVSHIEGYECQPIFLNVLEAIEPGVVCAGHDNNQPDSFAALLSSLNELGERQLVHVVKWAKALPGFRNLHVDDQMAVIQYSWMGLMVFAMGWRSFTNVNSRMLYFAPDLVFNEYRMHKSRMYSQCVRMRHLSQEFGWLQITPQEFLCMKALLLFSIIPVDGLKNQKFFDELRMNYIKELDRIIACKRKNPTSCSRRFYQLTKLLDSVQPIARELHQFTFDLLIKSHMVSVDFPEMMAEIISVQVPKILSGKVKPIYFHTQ
Description: Inhibitory activity against AR

[4] = target: T3, Estrogen receptor beta (Homo sapiens, UniProt Q92731)
Description: Binding affinity to human ERbeta

[5] = target: T3, Estrogen receptor beta; type: functional, cell-based, HEK293
Description: Effect on transactivation of ALP gene expression in HEK293 cells transfected with hERbeta

T3 sequence (Q92731 whole entry): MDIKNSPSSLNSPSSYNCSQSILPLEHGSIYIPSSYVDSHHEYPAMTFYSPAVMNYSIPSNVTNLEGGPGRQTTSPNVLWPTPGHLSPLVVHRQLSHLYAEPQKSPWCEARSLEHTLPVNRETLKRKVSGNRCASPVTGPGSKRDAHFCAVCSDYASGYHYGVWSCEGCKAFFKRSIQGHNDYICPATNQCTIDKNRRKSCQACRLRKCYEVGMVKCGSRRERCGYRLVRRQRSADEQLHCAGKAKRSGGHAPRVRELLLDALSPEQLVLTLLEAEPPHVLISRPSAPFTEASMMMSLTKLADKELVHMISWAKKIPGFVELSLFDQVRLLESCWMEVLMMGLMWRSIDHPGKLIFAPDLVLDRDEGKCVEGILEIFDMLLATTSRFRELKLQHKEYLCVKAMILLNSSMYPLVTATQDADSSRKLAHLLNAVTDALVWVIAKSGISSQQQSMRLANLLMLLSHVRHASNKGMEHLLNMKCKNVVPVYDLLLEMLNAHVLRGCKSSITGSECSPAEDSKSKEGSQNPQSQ

Row | Compound | EC50 [1] | IC50 [2] | IC50 [3] | IC50 [4] | EC50 [5]
1 | C[C@]12CCC3C(CC=C4C[C@@H](O)CC[C@@]43/C=C\Br)C1CC[C@@H]2O (stereo partly specified) | > 1000 nM | > 10000 nM | 20 nM | 212 nM | 96 nM
2 | CO/C=C/[C@]12CC[C@H](O)CC1=CCC1C2CC[C@@]2(C)C1CC[C@@H]2O (stereo partly specified) | 583 nM | > 10000 nM | 4620 nM | 1300 nM | 827 nM
3 | C#CC[C@]12CC[C@H](O)CC1=CCC1C2CC[C@@]2(C)C1CC[C@@H]2O (stereo partly specified) | 984 nM | 4640 nM | 1720 nM | 286 nM | 153 nM
4 | C[C@]12CCC3C(CC=C4C[C@@H](O)CC[C@@]43/C=C/Cl)C1CC[C@@H]2O (stereo partly specified) | 603 nM | 5600 nM | 1440 nM | 122 nM | 68 nM
5 | C[C@]12CCC3C(CC=C4C[C@@H](O)CC[C@@]43/C=C/F)C1CC[C@@H]2O (stereo partly specified) | 324 nM | 4160 nM | 85 nM | 22 nM | 8.7 nM
6 | C[C@]12CCC3C(CC=C4C[C@@H](O)CC[C@@]43/C=C\F)C1CC[C@@H]2O (stereo partly specified) | 622 nM | 4280 nM | 11 nM | 25 nM | 3.8 nM
7 | CCC[C@]12CC[C@H](O)CC1=CCC1C2CC[C@@]2(C)C1CC[C@@H]2O (stereo partly specified) | – | 5160 nM | 1770 nM | 132 nM | –
8 | CC[C@]12CC[C@H](O)CC1=CCC1C2CC[C@@]2(C)C1CC[C@@H]2O (stereo partly specified) | – | 2330 nM | 33 nM | 16 nM | –
9 | C[C@]12CC[C@H]3[C@@H](CCC4=CC(=O)CC[C@@]43C)[C@@H]1CC[C@@H]2O [TESTOSTERONE] | – | – | – | > 10000 nM | –
10 | C#CC1(O)CCC2C3CC=C4C[C@@H](O)CC[C@]4(C=C)C3CC[C@@]21C (single isomer, unassigned) | 10 nM | 147 nM | 287 nM | 14 nM | 24 nM
11 | C[C@]12CCC3C(CC=C4C[C@@H](O)CC[C@@]43/C=C/Br)C1CC[C@@H]2O (stereo partly specified) | > 1000 nM | 3980 nM | 120 nM | 210 nM | 67 nM
12 | C[C@]12CCC3C(CC=C4C[C@@H](O)CC[C@@]43/C=C\Cl)C1CC[C@@H]2O (stereo partly specified) | > 1000 nM | 6690 nM | 172 nM | 83 nM | 91 nM
13 | CO/C=C\[C@]12CC[C@H](O)CC1=CCC1C2CC[C@@]2(C)C1CC[C@@H]2O (stereo partly specified) | 3240 nM | 3350 nM | 1400 nM | 303 nM | 188 nM
14 | C=C[C@]12CC[C@H](O)CC1=CCC1C2CC[C@@]2(C)C1CC[C@]2(C)O (stereo partly specified) | 494 nM | 1050 nM | 169 nM | 25 nM | 31 nM
15 | CC/C=C\[C@]12CC[C@H](O)CC1=CCC1C2CC[C@@]2(C)C1CC[C@@H]2O (stereo partly specified) | 719 nM | 3040 nM | 3770 nM | 361 nM | 252 nM
16 | C/C=C/[C@]12CC[C@H](O)CC1=CCC1C2CC[C@@]2(C)C1CC[C@@H]2O (stereo partly specified) | 47 nM | 1160 nM | 843 nM | 96 nM | 39 nM
17 | C#CC12CC[C@H](O)CC1=CCC1C2CC[C@@]2(C)C1CC[C@@H]2O (single isomer, unassigned) | 160 nM | 425 nM | 1760 nM | 17 nM | 8 nM
18 | C[C@]12CCC3C(CC=C4C[C@@H](O)CC[C@@]43CO)C1CC[C@@H]2O (stereo partly specified) | > 1000 nM | 6320 nM | > 5000 nM | 1750 nM | > 641 nM
19 | CC#C[C@]12CC[C@H](O)CC1=CCC1C2CC[C@@]2(C)C1CC[C@@H]2O (stereo partly specified) | 1000 nM | > 8420 nM | 3730 nM | 381 nM | 171 nM
20 | C=C[C@]12CC[C@H](O)CC1=CCC1C2CC[C@@]2(C)C1CC[C@@H]2O (stereo partly specified) | 982 nM | 2240 nM | 33 nM | 11 nM | 4.1 nM
21 | C[C@]12CCC3C(CC=C4C[C@@H](O)CC[C@@]43C=O)C1CC[C@@H]2O (stereo partly specified) | 844 nM | > 10000 nM | > 5000 nM | 230 nM | 78 nM
22 | C=CC[C@]12CC[C@H](O)CC1=CCC1C2CC[C@@]2(C)C1CC[C@@H]2O (stereo partly specified) | 1000 nM | 1740 nM | 1770 nM | 128 nM | 148 nM
23 | C=C[C@]12CCC(=O)C=C1CCC1C2CC[C@@]2(C)C1CC[C@@H]2O (stereo partly specified) | > 1000 nM | > 10000 nM | 7.9 nM | 782 nM | 379 nM
24 | C/C=C\[C@]12CC[C@H](O)CC1=CCC1C2CC[C@@]2(C)C1CC[C@@H]2O (stereo partly specified) | 344 nM | 1960 nM | – | 16 nM | 21 nM
25 | C[C@]12CCC3C(CC=C4C[C@@H](O)CC[C@@]43CC=O)C1CC[C@@H]2O (stereo partly specified) | > 1000 nM | > 1000 nM | > 5000 nM | 1620 nM | > 1000 nM
